Patent US10004701B2, “Methods and compositions for treating infection” (UNIVERSITY OF ROCHESTER, priority 2012, dated 2018)
Counter-ions that a name gives are not always drawn. Like-named read-outs stand apart in the source and are kept apart here.

Tests used:
Experiment in all cases: AK assay 384-well format, Prestwick library screening
E. faecium = format: cell-based, Enterococcus faecium; conditions: 50 μM final drug concentration; for fold induction at 50 µM: Enterococcus faecium, 3 h
[1] = tested on: S. aureus strain USA300-0114; format: cell-based, Staphylococcus aureus; conditions: 50 μM final drug concentration; for fold induction at 50 µM: Staphylococcus aureus, USA300, 3 h
K. pneumoniae = format: cell-based, Klebsiella pneumoniae; conditions: 50 μM final drug concentration; for fold induction at 50 µM: Klebsiella pneumoniae, 3 h
[2] = tested on: A. baumannii strain 98-37-09; format: cell-based, Acinetobacter baumannii; conditions: 50 μM final drug concentration; for fold induction at 50 µM: Acinetobacter baumannii, 983709, 3 h
P. aeruginosa = format: cell-based, Pseudomonas aeruginosa; conditions: 50 μM final drug concentration; for fold induction at 50 µM: Pseudomonas aeruginosa, 3 h
E. cloacae = format: cell-based, Enterobacter cloacae; conditions: 50 μM final drug concentration; for fold induction at 50 µM: Enterobacter cloacae, 3 h
E. coli = format: cell-based, Escherichia coli; conditions: 50 μM final drug concentration; for fold induction at 50 µM: Escherichia coli, 3 h
[3] = planktonic E. faecium, 384-well, cutoff for positive-scoring molecules 3-fold increase, read-out: AK-based Prestwick Library Screening Results: E. faecium (increase in extracellular AK activity)
[4] = planktonic S. aureus, 384-well, cutoff for positive-scoring molecules 3-fold increase, read-out: AK-based Prestwick Library Screening Results: S. aureus (increase in extracellular AK activity)
[5] = planktonic K. pneumoniae, 384-well, cutoff for positive-scoring molecules 3-fold increase, read-out: AK-based Prestwick Library Screening Results: K. pneumoniae (increase in extracellular AK activity)
[6] = planktonic A. baumannii, 384-well, cutoff for positive-scoring molecules 3-fold increase, read-out: AK-based Prestwick Library Screening Results: A. baumannii (increase in extracellular AK activity)
[7] = planktonic P. aeruginosa, 384-well, cutoff for positive-scoring molecules 3-fold increase, read-out: AK-based Prestwick Library Screening Results: P. aeruginosa (increase in extracellular AK activity)
[8] = planktonic E. cloacae, 384-well, cutoff for positive-scoring molecules 3-fold increase, read-out: AK-based Prestwick Library Screening Results: E. cloacae (increase in extracellular AK activity)
[9] = planktonic E. coli, 384-well, cutoff for positive-scoring molecules 3-fold increase, read-out: AK-based Prestwick Library Screening Results: E. coli (increase in extracellular AK activity)
[10] = cutoff for positive-scoring molecules 3-fold increase
[11] = planktonic, cutoff for positive-scoring molecules 3-fold increase

## CN(C)[C@@H]1C(O)=C(C(N)=O)C(=O)[C@@]2(O)C(O)=C3C(=O)c4c(O)cccc4[C@@](C)(O)[C@H]3[C@H](O)[C@@H]12 [Oxytetracycline dihydrate]
E. faecium; [3]
  fold induction at 50 µM: 0.9
[1]; [4]
  fold induction at 50 µM: 3.4
K. pneumoniae; [5]
  fold induction at 50 µM: 0.2
[2]; [6]
  fold induction at 50 µM: 5.3
P. aeruginosa; [7]
  fold induction at 50 µM: 0.5
E. cloacae; [8]
  fold induction at 50 µM: 1.1
E. coli; [9]
  fold induction at 50 µM: 1

## Cc1c(N(C)CS(=O)(=O)[O-])c(=O)n(-c2ccccc2)n1C.[Na+] [Dipyrone]
E. faecium; [10]
  AK-based Prestwick Library Screening Results, E. faecium (fold increase in extracellular AK activity): 1.0
[1]; [10]
  AK-based Prestwick Library Screening Results, S. aureus (fold increase in extracellular AK activity): 1.4
K. pneumoniae; [10]
  AK-based Prestwick Library Screening Results, K. pneumoniae (fold increase in extracellular AK activity): 1.1
[2]; [10]
  AK-based Prestwick Library Screening Results, A. baumannii (fold increase in extracellular AK activity): 1.1
P. aeruginosa; [10]
  AK-based Prestwick Library Screening Results, P. aeruginosa (fold increase in extracellular AK activity): 1.1
E. cloacae; [10]
  AK-based Prestwick Library Screening Results, E. cloacae (fold increase in extracellular AK activity): 1.4
E. coli; [10]
  AK-based Prestwick Library Screening Results, E. coli (fold increase in extracellular AK activity): 1.1

## Cc1oncc1C(=O)Nc1ccc(C(F)(F)F)cc1 [Leflunomide]
E. faecium; cutoff for positive-scoring molecules 3-fold increase, read-out: AK-based Prestwick Library Screening Results, E. faecium (fold increase in extracellular AK activity)
  fold induction at 50 µM: 0.7
[1]; cutoff for positive-scoring molecules 3-fold increase, read-out: AK-based Prestwick Library Screening Results, S. aureus (fold increase in extracellular AK activity)
  fold induction at 50 µM: 0.6
K. pneumoniae; cutoff for positive-scoring molecules 3-fold increase, read-out: AK-based Prestwick Library Screening Results, K. pneumoniae (fold increase in extracellular AK activity)
  fold induction at 50 µM: 0.6
[2]; cutoff for positive-scoring molecules 3-fold increase, read-out: AK-based Prestwick Library Screening Results, A. baumannii (fold increase in extracellular AK activity)
  fold induction at 50 µM: 0.8
P. aeruginosa; cutoff for positive-scoring molecules 3-fold increase, read-out: AK-based Prestwick Library Screening Results, P. aeruginosa (fold increase in extracellular AK activity)
  fold induction at 50 µM: 0.8
E. cloacae; cutoff for positive-scoring molecules 3-fold increase, read-out: AK-based Prestwick Library Screening Results, E. cloacae (fold increase in extracellular AK activity)
  fold induction at 50 µM: 1.5
E. coli; cutoff for positive-scoring molecules 3-fold increase, read-out: AK-based Prestwick Library Screening Results, E. coli (fold increase in extracellular AK activity)
  fold induction at 50 µM: 0.8

## COc1ccc2c(c1OC)C(=O)O[C@@H]2[C@H]1c2cc3c(cc2CCN1C)OCO3 [Hydrastine hydrochloride]
E. faecium; planktonic E. faecium, […], read-out: AK-based Prestwick Library Screening Results, E. faecium (increase in extracellular AK activity)
  fold induction at 50 µM: 1
[1]; planktonic S. aureus, […], read-out: AK-based Prestwick Library Screening Results, S. aureus (increase in extracellular AK activity)
  fold induction at 50 µM: 0.6
K. pneumoniae; planktonic K. pneumoniae, […], read-out: AK-based Prestwick Library Screening Results, K. pneumoniae (increase in extracellular AK activity)
  fold induction at 50 µM: 0.8
[2]; planktonic A. baumannii, […], read-out: AK-based Prestwick Library Screening Results, A. baumannii (increase in extracellular AK activity)
  fold induction at 50 µM: 1
P. aeruginosa; planktonic P. aeruginosa, […], read-out: AK-based Prestwick Library Screening Results, P. aeruginosa (increase in extracellular AK activity)
  fold induction at 50 µM: 0.9
E. cloacae; planktonic E. cloacae, […], read-out: AK-based Prestwick Library Screening Results, E. cloacae (increase in extracellular AK activity)
  fold induction at 50 µM: 0.9
E. coli; planktonic E. coli, […], read-out: AK-based Prestwick Library Screening Results, E. coli (increase in extracellular AK activity)
  fold induction at 50 µM: 0.9

## O=C1NCN(c2ccccc2)C12CCN(CCCC(c1ccc(F)cc1)c1ccc(F)cc1)CC2 [Fluspirilen]
E. faecium; [11]
  AK-based Prestwick Library Screening Results, E. faecium (fold increase in extracellular AK activity): 1.3
[1]; [11]
  AK-based Prestwick Library Screening Results, S. aureus (fold increase in extracellular AK activity): 1.4
K. pneumoniae; [11]
  AK-based Prestwick Library Screening Results, K. pneumoniae (fold increase in extracellular AK activity): 1.1
[2]; [11]
  AK-based Prestwick Library Screening Results, A. baumannii (fold increase in extracellular AK activity): 6.6
P. aeruginosa; [11]
  AK-based Prestwick Library Screening Results, P. aeruginosa (fold increase in extracellular AK activity): 0.8
E. cloacae; [11]
  AK-based Prestwick Library Screening Results, E. cloacae (fold increase in extracellular AK activity): 1.0
E. coli; [11]
  AK-based Prestwick Library Screening Results, E. coli (fold increase in extracellular AK activity): 1.3

## CN1[C@@H](C[C@@H](O)c2ccccc2)CCC[C@H]1C[C@H](O)c1ccccc1.Cl [Lobelanidine hydrochloride]
E. faecium; planktonic E. faecium, cutoff for positive-scoring molecules 3-fold increase
  AK-based Prestwick Library Screening Results, E. faecium (increase in extracellular AK activity): 0.9
[1]; planktonic S. aureus, cutoff for positive-scoring molecules 3-fold increase
  AK-based Prestwick Library Screening Results, S. aureus (increase in extracellular AK activity): 0.6
K. pneumoniae; planktonic K. pneumoniae, cutoff for positive-scoring molecules 3-fold increase
  AK-based Prestwick Library Screening Results, K. pneumoniae (increase in extracellular AK activity): 0.8
[2]; planktonic A. baumannii, cutoff for positive-scoring molecules 3-fold increase
  AK-based Prestwick Library Screening Results, A. baumannii (increase in extracellular AK activity): 1.0
P. aeruginosa; planktonic P. aeruginosa, cutoff for positive-scoring molecules 3-fold increase
  AK-based Prestwick Library Screening Results, P. aeruginosa (increase in extracellular AK activity): 1.0
E. cloacae; planktonic E. cloacae, cutoff for positive-scoring molecules 3-fold increase
  AK-based Prestwick Library Screening Results, E. cloacae (increase in extracellular AK activity): 1.0
E. coli; planktonic E. coli, […]
  AK-based Prestwick Library Screening Results, E. coli (increase in extracellular AK activity): 1.0

## COc1ccc2c(c1OC)C(=O)O[C@@H]2[C@H]1c2c(cc3c(c2OC)OCO3)CCN1C [Noscapine]
E. faecium; [3]
  fold induction at 50 µM: 0.9
[1]; [4]
  fold induction at 50 µM: 0.5
K. pneumoniae; [5]
  fold induction at 50 µM: 0.5
[2]; [6]
  fold induction at 50 µM: 0.6
P. aeruginosa; [7]
  fold induction at 50 µM: 0.5
E. cloacae; [8]
  fold induction at 50 µM: 0.6
E. coli; [9]
  fold induction at 50 µM: 0.6

## CC(C(=O)O)c1cccc(Oc2ccccc2)c1 (stereo not shown) [Fenoprofen calcium salt dihydrate]
E. faecium; planktonic, cutoff for positive-scoring molecules 3-fold increase, read-out: AK-based Prestwick Library Screening Results, E. faecium (fold increase in extracellular AK activity)
  fold induction at 50 µM: 0.9
[1]; planktonic, cutoff for positive-scoring molecules 3-fold increase, read-out: AK-based Prestwick Library Screening Results, S. aureus (fold increase in extracellular AK activity)
  fold induction at 50 µM: 0.8
K. pneumoniae; planktonic, cutoff for positive-scoring molecules 3-fold increase, read-out: AK-based Prestwick Library Screening Results, K. pneumoniae (fold increase in extracellular AK activity)
  fold induction at 50 µM: 0.7
[2]; planktonic, cutoff for positive-scoring molecules 3-fold increase, read-out: AK-based Prestwick Library Screening Results, A. baumannii (fold increase in extracellular AK activity)
  fold induction at 50 µM: 0.8
P. aeruginosa; planktonic, cutoff for positive-scoring molecules 3-fold increase, read-out: AK-based Prestwick Library Screening Results, P. aeruginosa (fold increase in extracellular AK activity)
  fold induction at 50 µM: 0.8
E. cloacae; planktonic, cutoff for positive-scoring molecules 3-fold increase, read-out: AK-based Prestwick Library Screening Results, E. cloacae (fold increase in extracellular AK activity)
  fold induction at 50 µM: 1.4
E. coli; planktonic, cutoff for positive-scoring molecules 3-fold increase, read-out: AK-based Prestwick Library Screening Results, E. coli (fold increase in extracellular AK activity)
  fold induction at 50 µM: 0.8

## CC(=O)N(CC(C)C(=O)O)c1c(I)cc(I)c(N)c1I (stereo not shown) [locetamic acid]
E. faecium; [11]
  AK-based Prestwick Library Screening Results, E. faecium (fold increase in extracellular AK activity): 0.9
[1]; [11]
  AK-based Prestwick Library Screening Results, S. aureus (fold increase in extracellular AK activity): 0.8
K. pneumoniae; [11]
  AK-based Prestwick Library Screening Results, K. pneumoniae (fold increase in extracellular AK activity): 0.8
[2]; [11]
  AK-based Prestwick Library Screening Results, A. baumannii (fold increase in extracellular AK activity): 0.8
P. aeruginosa; [11]
  AK-based Prestwick Library Screening Results, P. aeruginosa (fold increase in extracellular AK activity): 0.9
E. cloacae; [11]
  AK-based Prestwick Library Screening Results, E. cloacae (fold increase in extracellular AK activity): 1.4
E. coli; planktonic, […]
  AK-based Prestwick Library Screening Results, E. coli (fold increase in extracellular AK activity): 0.9

## N[C@@H]1CONC1=O [D-cycloserine]
E. faecium; planktonic E. faecium, positive cutoff 3-fold increase
  AK-based Prestwick library screening result, E. faecium (fold increase in extracellular AK activity): 1.2
[1]; planktonic S. aureus, positive cutoff 3-fold increase
  AK-based Prestwick library screening result, S. aureus (fold increase in extracellular AK activity): 1.4
K. pneumoniae; planktonic K. pneumoniae, positive cutoff 3-fold increase
  AK-based Prestwick library screening result, K. pneumoniae (fold increase in extracellular AK activity): 1.1
[2]; planktonic A. baumannii, positive cutoff 3-fold increase
  AK-based Prestwick library screening result, A. baumannii (fold increase in extracellular AK activity): 1.0
P. aeruginosa; planktonic P. aeruginosa, positive cutoff 3-fold increase
  AK-based Prestwick library screening result, P. aeruginosa (fold increase in extracellular AK activity): 1.2
E. cloacae; planktonic E. cloacae, positive cutoff 3-fold increase
  AK-based Prestwick library screening result, E. cloacae (fold increase in extracellular AK activity): 1.2
E. coli; planktonic E. coli, positive cutoff 3-fold increase
  AK-based Prestwick library screening result, E. coli (fold increase in extracellular AK activity): 1.4
